Target: T1, GST-tagged human RIPK1 (Homo sapiens, UniProt Q13546)
T1 construct: purchased SignalChem R07–11G-10
T1 sequence (Q13546 1-327 limits assumed): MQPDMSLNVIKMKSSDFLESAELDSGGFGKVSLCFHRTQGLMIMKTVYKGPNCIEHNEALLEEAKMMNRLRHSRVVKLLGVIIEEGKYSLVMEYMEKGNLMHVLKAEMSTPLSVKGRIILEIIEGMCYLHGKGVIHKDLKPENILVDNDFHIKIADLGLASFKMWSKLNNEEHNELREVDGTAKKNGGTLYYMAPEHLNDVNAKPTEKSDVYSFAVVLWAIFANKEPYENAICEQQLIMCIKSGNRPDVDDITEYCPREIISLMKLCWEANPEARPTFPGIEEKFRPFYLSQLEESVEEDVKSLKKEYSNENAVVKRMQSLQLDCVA
Test: TR-FRET biochemical binding assay for RIPK1
Protocol: Figure 2 LD4172, a RIPK1 PROTAC, induces potent and highly specific degradation of RIPK1 in a panel of cell lines. A, Chemical structures of RIPK1 PROTAC, LD4172, and its negative control, LD4172-NC. […] B, Quantification of RIPK1 levels in both Jurkat and B16F10 cells treated with LD4172 at indicated concentrations for 24 h, followed by Western blotting. C, DC50 and Dmax of LD4172 in various human and mouse cell lines. DC50, the drug concentration causing 50% protein degradation; Dmax, the maximum level of protein degradation. D, RIPK1 degradation kinetics induced by LD4172 treatment (1 μM) and resynthesis kinetics upon washout of LD4172 in both Jurkat and B16F10 cells. […] G, Time-resolved fluorescence resonance energy transfer (TR-FRET) based biochemical binding assay for RIPK1. […] In total, ~10,000 proteins were quantified in the proteomics experiment. […]
A time-resolved fluorescence resonance energy transfer (TR-FRET) assay was performed to evaluate the binding of the indicated compounds and RIPK1 by competition with a BODIPY-FL labeled RIPK1 tracer (Supplementary Information, T2I-488). […] The assay mixtures were incubated at room temperature in the dark for 120 min, and the signals were collected using a BioTek Synergy H1 microplate reader to measure the fluorescence emission ratio (I520 nm/I490 nm) of each well using a 340-nm excitation filter, a 100-μs delay, and a 200-μs integration time. […]

## Cc1ncsc1-c1ccc([C@H](C)NC(=O)[C@@H]2C[C@@H](O)CN2C(=O)[C@@H](NC(=O)CCCCCCCCCCC(=O)NCCCn2cc(-c3ccc4c(c3)CCN4C(=O)Cc3cccc(OC(F)(F)F)c3)c3c(N)ncnc32)C(C)(C)C)cc1 [LD4172]
2 hours incubation, n=3, read-out: IC50, Fig. 2G
  IC50: 9.6 nM
Recombinant human RIPK1 protein
  Ki: 4.8 nM

From publication PMC11042424, “Development of a First-in-Class RIPK1 Degrader to Enhance Antitumor Immunity” (Research Square, 2024)
